Data published in ChEMBL document CHEMBL1166004, “Microbial transformations of the taxan ring of 10-DAB by some strains of the fungus Curvularia lunata: formation of the bis-abeotaxanes wallifoliol and 4-deacylwallifoliol” (J Nat Prod, 2010).

Tested on: NCI-H460
Assay: Cytotoxicity against human H460 cells
Assay type: functional, cell-based

SMILES | IC50 [µM]
CC1=C2[C@]3(O)C(=O)OC(C)(C)[C@]2(C[C@@H]1O)[C@@H](OC(=O)c1ccccc1)[C@@H]1[C@]2(O)CO[C@@H]2C[C@H](O)[C@]13C | 103
CC(=O)O[C@@]12CO[C@@H]1C[C@H](O)[C@]1(C)[C@@H]2[C@H](OC(=O)c2ccccc2)[C@]23C[C@H](O)C(C)=C2[C@@]1(O)C(=O)OC3(C)C [WALLIFOLIOL] | 68
